Legend:
[1] = target: BTK (Mus musculus, UniProt P35991); test: BTK inhibition assay of benzopyran derivatives; format: biochemical; conditions: for IC50: BTK inhibitory activity; for BTK inhibitory activity in words: kinase assays
[2] = system: RBL-2H3 rat mast cells; test: IgE/FcεRI receptor mediated leukotriene C4 release, RBL-2H3 mast cells; format: cell-based; conditions: RBL-2H3, IgE/DNP-BSA challenge, 30 min pre-incubation, 1-100 μM, N = 3-4, read-out: EC50 (mean ± SEM), inhibition of leukotriene C4 release
Experimental: Mast Cell Cultures. RBL-2H3 mast cells were a gift from Dr. Reuben P. Siraganian (Laboratory of Microbiology and Immunology, National Institute of Dental Research, National Institute of Health). The cells were maintained as monolayer cultures in 75- or 150-cm^2 flask in Eagle's essential medium supplemented with 20% fetal calf serum. Human fetal livers (16 to 21 weeks of gestational age) were obtained from prostaglandin-induced human abortuses. Subsequently, single cell suspensions were prepared and mononuclear cells were isolated by centrifugation on Ficoll-Hypaque gradients as described (Malaviya, R., et al., (1999) J Biol Chem, 274, 27028-27038). Isolated cells were cultured for 8 weeks in the presence of 100 ng/ml rhSCF, 2 ng/ml rhIL-4 (Malaviya, R., et al., (1999) J Biol Chem, 274, 27028-27038; Xia, H. Z., et al., (1997) J Immunol, 159, 2911-2921). Culture medium was replaced with fresh medium once a week for the first 2 weeks and twice a week thereafter. All human tissue specimens were used following the guidelines of the Parker Hughes Institute Institutional Review Board on the Use of Human Subjects in Research for secondary use of pathologic or surgical tissue. At the end of the 8 weeks the fetal liver derived human mast cell culture contained 70-90 percent mast cells, based on toluidine blue and tryptase staining (Xia, H. Z., et al., (1997) J Immunol, 159, 2911-2921).
Stimulation of Mast Cells. RBL-2H3 rat mast were sensitized with monoclonal anti-DNP IgE antibody (0.24 mg/ml) for 1 h at 37° C. in a 48-well tissue culture plate. Unbound IgE was removed by washing the cells with PIPES-buffered saline. After washing, PIPES-buffered saline containing 1 mM calcium chloride was added to the monolayers of the RBL-2H3 cells. The cells were challenged with 20 ng/ml DNP-BSA for 30 min at 37° C. The plate was centrifuged at 200 g for 10 min at 4° C. Supernatants were removed and saved. Fetal liver-derived human mast cells were resuspended in culture medium at a cell density of 5×10^6/ml and sensitized with human IgE (150 μg/ml) for 3 h at 4° C. After sensitization the cells were washed with tyrode buffer containing 1 mM calcium and 1 mM magnesium and challenged with mouse monoclonal anti-human IgE (40 μg/ml) for 30 min at 37° C. To study the effect of test drugs, RBL-2H3 rat mast cells or human mast cells were incubated with the drugs at the indicated concentrations or vehicle for 30 min prior to antigen challenge.
Mediator Release Assay. Leukotriene C4 levels were estimated in cell free supernatants of mast cells by immunoassay (Malaviya, R. and Abraham, S. N., (1995) Methods Enzymol, 253, 27-43).
Mast cells release large amounts of leukotrienes upon IgE receptor ligation. Because of the reported ability of LFM as a mast cell inhibitor, we utilized 13 analogues of LFM (Table 1) and examined their effect on IgE/FcεERI receptor mediated mast cell leukotriene C4 release. RBL-2H3 cells, a mucosal mast cell line, were treated with 5 different concentrations of the compounds ranging from 1 μM to 100 μM or vehicle for 30 min before challenge with antigen (DNP-BSA) at 37° C. Leukotriene C4 release was quantitated in the extracellular medium employing a previously described ELISA (Malaviya, R. and Abraham, S. N., (1995) Methods Enzymol, 253, 27-43).

[3] = system: NALM-6 cells; test: Apoptosis induction, TUNNEL and flow cytometric assay; format: cell-based, human; conditions: compound alone, 100 μM
[4] = system: human leukemia cells; test: Ceramide or vincristine sensitivity of human leukemia cells; format: cell-based; conditions: co-administration with chemotherapeutic agent
Excerpt: FIG. 23: Effects of DDE-11 on ceramide or vincristine—sensitivity of human leukemia cells. Studies were done as described above for FIG. 17, but using DDE 11 as the BTK inhibitor.

Sequence of BTK (P35991 whole entry): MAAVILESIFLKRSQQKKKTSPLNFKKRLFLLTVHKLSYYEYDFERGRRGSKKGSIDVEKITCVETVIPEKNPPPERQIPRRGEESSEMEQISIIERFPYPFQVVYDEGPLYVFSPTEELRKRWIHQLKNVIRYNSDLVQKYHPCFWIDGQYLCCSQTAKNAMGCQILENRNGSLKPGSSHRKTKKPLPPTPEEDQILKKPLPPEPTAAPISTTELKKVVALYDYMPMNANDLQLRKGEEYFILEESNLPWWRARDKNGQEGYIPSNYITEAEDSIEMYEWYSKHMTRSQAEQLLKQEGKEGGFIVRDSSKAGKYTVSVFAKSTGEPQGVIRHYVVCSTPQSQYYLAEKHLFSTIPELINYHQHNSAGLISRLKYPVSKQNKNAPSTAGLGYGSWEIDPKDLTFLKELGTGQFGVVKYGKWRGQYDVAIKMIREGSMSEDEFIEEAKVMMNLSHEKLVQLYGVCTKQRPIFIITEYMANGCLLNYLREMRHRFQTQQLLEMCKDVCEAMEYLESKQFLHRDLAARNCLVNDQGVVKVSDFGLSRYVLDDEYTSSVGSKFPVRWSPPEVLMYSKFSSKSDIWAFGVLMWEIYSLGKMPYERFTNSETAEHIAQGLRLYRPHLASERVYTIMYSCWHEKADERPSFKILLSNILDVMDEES

Compound	IC50 [1] [µM]	melting point [°C]	EC50 [2] [µM]	other results
CCCc1cc(=O)oc2c(C(=O)CC)c(OC)cc(OC)c12 [DDE229]	> 329			
CC(O)=C(C#N)C(=O)Nc1ccc(Cl)cc1 [LFM-A2, α-Cyano-β-hydroxy-β-methyl-N-(4-chlorophenyl)propenamide]		209 to 211	58 ± 13	
C/C(O)=C(\C#N)C(=O)Nc1ccc(OC(F)(F)F)c(Br)c1 [LFM-A17, α-Cyano-β-hydroxy-β-methyl-N-[3-bromo-4-(trifluoromethoxy)-phenyl]propenamide]		178 to 179		
O=c1cc(-c2ccccc2)c2c(O)cc(O)cc2o1 [DDE270, 5,7-Dihydroxy-4-phenyl-2H-1-benzopyran-2-one]	98.3			
CCCc1cc(=O)oc2c(C(=O)C(C)C)c(O)cc(O)c12 [DDE272]	> 344			
CC(O)=C(C#N)C(=O)Nc1ccc(C(F)(F)F)cc1 [LFM, α-Cyano-β-hydroxy-β-methyl-N-[4-(trifluoromethyl)phenyl]-propenamide, reference compound]			34 ± 14.5	
CC(O)=C(C#N)C(=O)Nc1ccccc1Br [LFM-A5, α-Cyano-β-hydroxy-β-methyl-N-(2-bromophenyl)propenamide]		98 to 100	46 ± 10	
CC(O)=C(C#N)C(=O)Nc1cccc(F)c1 [LFM-A11, α-Cyano-β-hydroxy-β-methyl-N-(3-fluorophenyl)propenamide]		136 to 138	> 100	
CCc1cc(=O)oc2cc(O)cc(O)c12 [DDE214, 5,7-Dihydroxy-4-ethyl-2H-1-benzopyran-2-one]	< 48.5			BTK inhibitory activity in words [1]: potent BTK inhibitors
CC(O)=C(C#N)C(=O)Nc1cccc(Br)c1 [LFM-A9, α-Cyano-β-hydroxy-β-methyl-N-(3-bromophenyl)propenamide]		184 to 185	> 100	
C/C(O)=C(\C#N)C(=O)Nc1ccc(Br)cc1Br [LFM-A19, α-Cyano-β-hydroxy-β-methyl-N-(2,4-dibromophenyl)-propenamide]		181		
CCCc1cc(=O)oc2c(C(=O)c3ccccc3)c(O)cc(O)c12 [DDE355]	> 308			
CC(O)=C(C#N)C(=O)Nc1ccccc1C(F)(F)F [LFM-A4, α-Cyano-β-hydroxy-β-methyl-N-[2-(trifluoromethyl)phenyl]-propenamide]		61 to 63	> 100	
C/C(O)=C(\C#N)C(=O)Nc1cc(Cl)ccc1Cl [LFM-A18, α-Cyano-β-hydroxy-β-methyl-N-(2,5-dichlorophenyl)-propenamide]		143 to 144		
CC(O)=C(C#N)C(=O)Nc1ccc(OC(F)(F)F)cc1 [LFM-A12, α-Cyano-β-hydroxy-β-methyl-N-[4-(trifluoromethoxy)phenyl]-propenamide]		182 to 183	30 ± 5.6	
CC(O)=C(C#N)C(=O)Nc1ccccc1Cl [LFM-A6, α-Cyano-β-hydroxy-β-methyl-N-(2-chlorophenyl)propenamide]		93 to 94	> 100	
CCCc1cc(=O)oc2c(C(=O)CC)c(O)cc(O)c12 [DDE11, 5,7-Dihydroxy-8-propanoyl-4-propyl-2H-1-benzopyran-2-one]	< 36.2			apoptosis induction [3]: induces apoptosis; BTK inhibitory activity in words [1]: potent BTK inhibitors; cytotoxicity of C2-CER and vincristine on co-administration [4]: increaseed the cytotoxicity
C/C(O)=C(\C#N)C(=O)Nc1ccc(S(C)(=O)=O)cc1 [LFM-A15, α-Cyano-β-hydroxy-β-methyl-N-[4-(methylsulfonyl)phenyl]-propenamide]		205 to 206		
CC(O)=C(C#N)C(=O)Nc1cccc(Cl)c1 [LFM-A10, α-Cyano-β-hydroxy-β-methyl-N-(3-chlorophenyl)propenamide]		184 to 187	51 ± 12	
CC(O)=C(C#N)C(=O)Nc1ccc(F)cc1 [LFM-A3, α-Cyano-β-hydroxy-β-methyl-N-(4-fluorophenyl)propenamide]		165 to 166	> 100	
CCCc1cc(=O)oc2c(C=O)c(O)cc(O)c12 [DDE213, 5,7-Dihydroxy-8-carboxaldehyde-4-propyl-2H-1-benzopyran-2-one]	< 40.3			BTK inhibitory activity in words [1]: potent BTK inhibitors
CC(O)=C(C#N)C(=O)Nc1ccc(Br)cc1 [LFM-A1, α-Cyano-β-hydroxy-β-methyl-N-(4-bromophenyl)propenamide]		213 to 214	64 ± 13.9	
C/C(O)=C(\C#N)C(=O)Nc1cccc(S(C)(=O)=O)c1 [LFM-A16]		213 to 214		
CCCc1cc(=O)oc2cc(O)cc(O)c12 [DDE181, 5,7-Dihydroxy-4 propyl-2H-1-benzopyran-2-one]	< 45.4			BTK inhibitory activity in words [1]: potent BTK inhibitors
CCCc1cc(=O)oc2c(C(C)=O)c(O)cc(O)c12 [DDE271, 5,7-Dihydroxy-8-acetyl-4-propyl-2H-1-benzopyran-2-one]	> 381			
CC(O)=C(C#N)C(=O)Nc1ccccc1 [LFM-A14, α-Cyano-β-hydroxy-β-methyl-N-(phenyl)propenamide]		134 to 135	> 100	
C/C(O)=C(\C#N)C(=O)Nc1ccc(Cl)cc1Cl [LFM-A20, α-Cyano-β-hydroxy-β-methyl-N-(2,4-dichlorophenyl)-propenamide]		143 to 144		
CC(O)=C(C#N)C(=O)Nc1ccccc1F [LFM-A7, α-Cyano-β-hydroxy-β-methyl-N-(2-fluorophenyl)propenamide]		118 to 119	> 100	
